According to PMC5840332, “Disease-associated missense mutations in GluN2B subunit alter NMDA receptor ligand binding and ion channel properties” (Nature Communications, 2018):
Where “and” joins values, the source holds several entries; their conditions need not be identical. Identical values can stand only once.

What was measured:
[1] = target: T1, GluN1–GluN2B^WT (Homo sapiens, UniProt Q05586+Q13224); test: Ion permeability experiments in Mg2+ or Ca2+ solution, HEK293 cells; assay type: cell-based; parameters: expressed in transfected cells; host or cells: HEK293; settings: −60 mV
From the text: (§1) To assess Mg^2+ permeability the external solution was altered such that Mg^2+ was the only current-carrying cation (Mg^2+ solution). […] The same result was apparent for GluN1–GluN2B^N615I (Fig. 4a; Table 1). […] To assess whether the channel mutants affected Ca^2+ permeation, we modified the external solution to make Ca^2+ the only current-carrying cation[24] (Ca^2+ solution). […] This implied a significant reduction in Ca^2+ permeation for GluN2B^N615I.
(§2) Cells were voltage clamped at −60 mV.

[2] = target: T2, GluN1–GluN2B^N615I (Homo sapiens, UniProt Q05586+Q13224, N615I); test: as above; assay type: cell-based; parameters: expressed in transfected cells; host or cells: HEK293; settings: −60 mV
T2 sequence (Q13224 27-1484 N615I, other chains not shown): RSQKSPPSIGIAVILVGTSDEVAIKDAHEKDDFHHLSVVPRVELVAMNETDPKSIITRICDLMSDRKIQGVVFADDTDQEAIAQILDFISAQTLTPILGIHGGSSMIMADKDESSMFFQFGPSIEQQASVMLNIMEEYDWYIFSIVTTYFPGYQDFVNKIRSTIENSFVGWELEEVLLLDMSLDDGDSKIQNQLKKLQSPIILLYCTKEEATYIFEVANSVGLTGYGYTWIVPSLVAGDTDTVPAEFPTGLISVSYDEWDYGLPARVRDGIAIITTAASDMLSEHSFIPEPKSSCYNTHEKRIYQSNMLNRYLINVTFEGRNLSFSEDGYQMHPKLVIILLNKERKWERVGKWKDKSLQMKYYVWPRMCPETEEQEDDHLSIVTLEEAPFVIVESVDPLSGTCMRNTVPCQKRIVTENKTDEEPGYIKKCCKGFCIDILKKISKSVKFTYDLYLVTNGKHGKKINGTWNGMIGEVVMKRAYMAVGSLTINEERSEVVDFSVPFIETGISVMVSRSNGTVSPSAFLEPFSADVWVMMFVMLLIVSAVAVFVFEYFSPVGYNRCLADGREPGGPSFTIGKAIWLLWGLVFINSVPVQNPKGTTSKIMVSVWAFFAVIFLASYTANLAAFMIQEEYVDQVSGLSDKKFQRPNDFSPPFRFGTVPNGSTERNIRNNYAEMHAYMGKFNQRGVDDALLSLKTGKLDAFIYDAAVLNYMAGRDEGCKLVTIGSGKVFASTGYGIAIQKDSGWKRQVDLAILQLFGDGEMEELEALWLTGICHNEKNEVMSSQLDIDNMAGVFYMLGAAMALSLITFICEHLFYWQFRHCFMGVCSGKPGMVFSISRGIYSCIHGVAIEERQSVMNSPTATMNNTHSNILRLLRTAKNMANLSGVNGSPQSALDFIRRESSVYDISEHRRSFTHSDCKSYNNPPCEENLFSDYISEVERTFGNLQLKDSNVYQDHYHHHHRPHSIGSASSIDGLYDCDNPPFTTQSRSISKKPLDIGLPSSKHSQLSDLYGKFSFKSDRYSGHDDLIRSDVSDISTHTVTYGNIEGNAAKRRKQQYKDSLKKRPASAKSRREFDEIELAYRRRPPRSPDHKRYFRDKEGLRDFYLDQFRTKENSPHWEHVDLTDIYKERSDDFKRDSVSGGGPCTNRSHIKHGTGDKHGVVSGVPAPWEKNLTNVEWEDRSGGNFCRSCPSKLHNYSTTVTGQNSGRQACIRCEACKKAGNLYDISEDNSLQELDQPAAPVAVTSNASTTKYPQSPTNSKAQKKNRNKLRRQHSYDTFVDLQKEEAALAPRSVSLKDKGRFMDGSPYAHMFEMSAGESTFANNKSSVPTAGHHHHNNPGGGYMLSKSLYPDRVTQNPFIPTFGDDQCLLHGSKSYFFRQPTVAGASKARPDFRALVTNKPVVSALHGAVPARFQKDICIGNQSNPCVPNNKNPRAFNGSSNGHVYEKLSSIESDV
From the text: as §1, §2

[3] = target: T3, GluN1–GluN2B^V618G (Homo sapiens, UniProt Q05586+Q13224, V618G); test: as above; assay type: cell-based; parameters: expressed in transfected cells; host or cells: HEK293; settings: −60 mV
T3 sequence (Q13224 27-1484 V618G, other chains not shown): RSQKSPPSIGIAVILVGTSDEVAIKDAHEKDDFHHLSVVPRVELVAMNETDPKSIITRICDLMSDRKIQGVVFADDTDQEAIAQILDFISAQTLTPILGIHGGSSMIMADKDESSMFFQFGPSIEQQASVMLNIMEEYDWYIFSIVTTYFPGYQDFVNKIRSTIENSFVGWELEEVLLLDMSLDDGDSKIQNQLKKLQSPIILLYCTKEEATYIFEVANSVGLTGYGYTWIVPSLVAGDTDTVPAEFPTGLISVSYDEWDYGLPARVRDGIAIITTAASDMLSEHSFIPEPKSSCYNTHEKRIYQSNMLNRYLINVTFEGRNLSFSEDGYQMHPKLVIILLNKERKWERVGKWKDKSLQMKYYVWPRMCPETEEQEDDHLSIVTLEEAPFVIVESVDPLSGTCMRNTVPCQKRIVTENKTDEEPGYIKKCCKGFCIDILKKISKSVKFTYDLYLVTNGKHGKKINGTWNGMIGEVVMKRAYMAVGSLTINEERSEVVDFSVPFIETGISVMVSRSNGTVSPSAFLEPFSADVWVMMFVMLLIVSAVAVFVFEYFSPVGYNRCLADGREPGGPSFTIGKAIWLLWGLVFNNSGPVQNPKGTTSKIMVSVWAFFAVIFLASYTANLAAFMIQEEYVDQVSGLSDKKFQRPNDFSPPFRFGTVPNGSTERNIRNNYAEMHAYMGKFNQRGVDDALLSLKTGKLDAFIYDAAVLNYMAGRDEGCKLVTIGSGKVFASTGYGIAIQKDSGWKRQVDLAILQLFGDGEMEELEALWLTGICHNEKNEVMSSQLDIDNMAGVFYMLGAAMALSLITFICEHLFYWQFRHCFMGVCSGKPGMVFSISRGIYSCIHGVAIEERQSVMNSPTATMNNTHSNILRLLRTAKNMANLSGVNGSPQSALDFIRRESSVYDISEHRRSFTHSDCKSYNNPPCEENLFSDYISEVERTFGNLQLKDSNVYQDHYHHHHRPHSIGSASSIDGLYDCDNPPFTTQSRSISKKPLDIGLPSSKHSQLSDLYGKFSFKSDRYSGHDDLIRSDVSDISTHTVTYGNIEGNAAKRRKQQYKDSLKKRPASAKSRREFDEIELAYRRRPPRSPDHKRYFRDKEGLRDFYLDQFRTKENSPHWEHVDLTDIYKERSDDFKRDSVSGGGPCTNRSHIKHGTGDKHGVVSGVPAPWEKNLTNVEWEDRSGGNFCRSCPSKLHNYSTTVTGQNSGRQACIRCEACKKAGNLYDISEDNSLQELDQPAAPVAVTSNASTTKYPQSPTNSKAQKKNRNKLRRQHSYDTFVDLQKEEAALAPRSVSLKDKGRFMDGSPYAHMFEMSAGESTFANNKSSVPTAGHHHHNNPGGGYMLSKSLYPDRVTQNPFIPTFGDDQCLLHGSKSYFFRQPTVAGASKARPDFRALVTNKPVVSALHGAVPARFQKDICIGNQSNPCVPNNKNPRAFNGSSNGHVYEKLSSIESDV
From the text: as §1, §2

[4] = target: T3, GluN1–GluN2B^V618G; test: Glutamate-activated whole-cell currents in HEK293 cells
Method: (§3) We used the alternatively spliced GluN1–4b isoform for co-expression with GluN2B.
(§4) All human NMDAR GluN1 (isoforms GluN1–4b[66]) and GluN2B constructs were cloned into the pRK5 expression vector (CMV promoter) with optimised Kozak sequences.
(§5) Whole-cell currents (in HEK293 cells) and evoked NMDAR-mediated EPSCs (in cultured neurons) were recorded using an AxoPatch 200B amplifier (Molecular Devices, Sunnyvale, CA, USA). […] The experiments using Ca^2+ as the main external ion were performed using a ‘Ca^2+-solution’ containing (mM): 100 CaCl2, 5 HEPES adjusted to pH 7.4 with Ca(OH)2. […] Cells were voltage clamped at −60 mV.
(§6) The rectification index (Ri) is measured from the current-voltage

[5] = target: T2, GluN1–GluN2B^N615I; test: as above; settings: 10 μM glycine
Method: as §3, §4, §5, §6

[6] = system: GluN1-GluN2BC456Y; test: Glutamate-activated whole-cell currents in HEK293 cells (mutation screen); settings: up to 3 mM glutamate
Method: as §4, §5, §6

[7] = system: GluN1-GluN2BA636P; test: as above; settings: up to 3 mM glutamate
Method: as §4, §5, §6

[8] = target: GluN1–GluN2B^P553L (Homo sapiens, UniProt Q05586+Q13224, P553L); test: Glutamate-activated whole-cell currents in HEK293 cells
Method: as §3, §4, §5, §6

[9] = target: GluN1-GluN2B R540H (Homo sapiens, UniProt Q05586+Q13224, R540H); test: Glutamate-activated whole-cell currents in HEK293 cells (mutation screen); settings: saturating glutamate, -30 mV
Method: as §4, §5, §6

[10] = target: T1, GluN1–GluN2B^WT; test: Glutamate-activated whole-cell currents in HEK293 cells (concentration–response, current density, desensitisation)
Method: as §3, §4, §5, §6

[11] = target: GluN1-GluN2B R682C (Homo sapiens, UniProt Q05586+Q13224, R682C); test: Glutamate-activated whole-cell currents in HEK293 cells (mutation screen); settings: saturating glutamate, -30 mV
Method: as §4, §5, §6

[12] = target: GluN1-GluN2B L825V (Homo sapiens, UniProt Q05586+Q13224, L825V); test: as above; settings: saturating glutamate, -30 mV
Method: as §4, §5, §6

[13] = target: GluN1–GluN2B^C461F (Homo sapiens, UniProt Q05586+Q13224, C461F); test: Glutamate-activated whole-cell currents in HEK293 cells
GluN1–GluN2B^C461F, sequence (Q13224 27-1484 C461F, other chains not shown): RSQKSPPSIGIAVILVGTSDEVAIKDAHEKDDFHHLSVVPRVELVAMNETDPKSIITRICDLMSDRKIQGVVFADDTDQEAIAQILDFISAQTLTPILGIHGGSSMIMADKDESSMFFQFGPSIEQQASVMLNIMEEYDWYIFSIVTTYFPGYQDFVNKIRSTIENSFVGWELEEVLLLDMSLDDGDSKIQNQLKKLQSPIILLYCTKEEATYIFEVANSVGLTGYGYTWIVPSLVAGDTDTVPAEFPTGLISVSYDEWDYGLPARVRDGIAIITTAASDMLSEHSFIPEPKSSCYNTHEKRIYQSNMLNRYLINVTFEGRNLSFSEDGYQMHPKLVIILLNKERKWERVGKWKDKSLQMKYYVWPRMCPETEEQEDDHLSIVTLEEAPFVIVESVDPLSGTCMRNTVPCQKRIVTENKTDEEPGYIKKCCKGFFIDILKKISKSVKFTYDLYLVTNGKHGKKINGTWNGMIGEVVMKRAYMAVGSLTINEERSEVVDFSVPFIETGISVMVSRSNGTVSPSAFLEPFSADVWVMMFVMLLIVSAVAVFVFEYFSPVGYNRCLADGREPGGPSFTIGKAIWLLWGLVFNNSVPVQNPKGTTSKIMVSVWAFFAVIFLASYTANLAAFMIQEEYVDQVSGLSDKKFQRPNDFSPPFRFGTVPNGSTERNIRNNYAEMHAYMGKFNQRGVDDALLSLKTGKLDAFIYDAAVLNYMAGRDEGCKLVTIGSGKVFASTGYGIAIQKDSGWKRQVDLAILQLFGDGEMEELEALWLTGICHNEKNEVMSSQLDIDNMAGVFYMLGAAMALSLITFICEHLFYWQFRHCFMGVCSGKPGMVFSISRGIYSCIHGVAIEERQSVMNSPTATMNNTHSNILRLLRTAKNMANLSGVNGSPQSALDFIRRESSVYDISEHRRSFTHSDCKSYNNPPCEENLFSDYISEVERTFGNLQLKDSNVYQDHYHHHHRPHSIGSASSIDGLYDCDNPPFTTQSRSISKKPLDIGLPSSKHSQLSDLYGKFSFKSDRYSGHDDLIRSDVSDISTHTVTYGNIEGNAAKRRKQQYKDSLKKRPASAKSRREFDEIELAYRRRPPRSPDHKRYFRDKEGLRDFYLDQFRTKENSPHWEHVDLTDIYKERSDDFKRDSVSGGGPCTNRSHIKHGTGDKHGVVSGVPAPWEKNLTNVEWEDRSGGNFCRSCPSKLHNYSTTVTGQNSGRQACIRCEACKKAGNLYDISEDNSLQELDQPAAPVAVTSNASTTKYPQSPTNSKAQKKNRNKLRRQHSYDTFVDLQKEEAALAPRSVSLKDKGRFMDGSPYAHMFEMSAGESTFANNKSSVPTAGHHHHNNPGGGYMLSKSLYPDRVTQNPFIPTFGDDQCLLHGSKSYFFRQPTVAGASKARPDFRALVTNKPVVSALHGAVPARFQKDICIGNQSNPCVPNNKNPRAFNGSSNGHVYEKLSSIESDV
Method: as §3, §4, §5, §6

[14] = target: T1, GluN1–GluN2B^WT; test: Mg2+ block of glutamate currents in HEK293 cells (concentration–inhibition, I–V, trapping model); assay type: cell-based; parameters: expressed in transfected cells; host or cells: HEK293
[15] = target: T3, GluN1–GluN2B^V618G; test: Mg2+ block of glutamate currents in HEK293 cells (concentration–inhibition, I–V, permeation model); assay type: cell-based; parameters: expressed in transfected cells; host or cells: HEK293; settings: −60 mV; for Effect of external Mg^2+ on glutamate current (Mg2+ block): 1 μM–10 mM Mg^2+
[16] = target: T2, GluN1–GluN2B^N615I; test: as above; assay type: cell-based; parameters: expressed in transfected cells; host or cells: HEK293; settings: 1 μM–10 mM Mg^2+, −60 mV
[17] = system: NMDAR-mediated EPSCs, hippocampal neurons; test: NMDAR-mediated EPSCs in cultured hippocampal neurons, pharmacological characterisation; assay type: cell-based, rat
Method: The impact of the GluN2B mutations was assessed on neuronal NMDARs by evoking network-driven NMDAR-mediated EPSCs in hippocampal neurons transfected with either wild-type or mutant GluN2B constructs. Hippocampal cultures were superfused with Krebs containing 10 μM CNQX and 20 μM bicuculline to block non-NMDA receptor and GABAA receptor-mediated currents, respectively. […] To obtain phase-locked EPSCs, a loose cell-attached patch electrode was used to serially stimulate presynaptic neurons yielding evoked EPSCs in postsynaptic neurons.
The relative contributions of GluN2A and GluN2B subunits to NMDAR-mediated currents (at 13–15 DIV) was assessed using the selective antagonists, TCN213 (30 μM, for GluN2A) and ifenprodil (3 μM, for GluN2B).
Dissected hippocampi were dissociated from E18 Sprague Dawley rat embryos using procedures and protocols that have been approved by the UK Home Office. They were dissociated into single cells using 0.1% w/v trypsin and serially triturated with flame-polished Pasteur pipettes. […] Neurons were transfected after 10 days in vitro (DIV) with either cDNAs for the GluN2B WT or mutants together with DsRed using Effectene (Qiagen) and recorded at 13–15 DIV.
as §2
NMDAR-mediated EPSCs were evoked by direct stimulation of single neighbouring neurons using a loose cell-attached patch electrode filled with Krebs and containing a bipolar stimulating electrode. […] For the pharmacological characterisation of NMDAR-mediated EPSCs, the selective antagonists ifenprodil (+)-hemitartrate (Santacruz biotechnology) and TCN213 (Tocris) were used.
EPSCs were analysed offline using WinWCP (Strathclyde Electrophysiology Software, UK). Peak EPSC amplitude, the area of the EPSC (charge transfer) and EPSC decays were measured. The decay time constants (τ) were determined by fitting the EPSC decays with a double exponential function. The weighted time constant (τw) was calculated using the following equation, where A indicates the relative area of each time constant.3 τw=((A1.τ1)+(A2.τ2))∕A1+A2.

[18] = system: GluN1-GluN2A diheteromers; parameters: method as in PMID 22022974; settings: cited from earlier work
[19] = Ca^2+ solution (100 mM), 10 μM glutamate and 10 μM glycine
[20] = current in Ca^2+ solution as % of current in Krebs
[21] = saturating glutamate, 10 μM glycine, −30 mV
[22] = Mg^2+ solution (100 mM), 10 μM glutamate and 10 μM glycine
[23] = current in Mg^2+ solution as % of current in Krebs
[24] = 3 μM ifenprodil, 13–15 DIV untransfected neurons
[25] = 30 μM TCN213, 13–15 DIV untransfected neurons

[Ca+2] [Ca^2+]
ICa current density [1, 19]: −7.08 ± 2.12 pA/pF | ICa/IKrebs [1, 20]: 52.83 ± 1.07% | ICa current density [2, 19]: −0.47 ± 0.10 pA/pF | ICa/IKrebs [2, 20]: 11.07 ± 1.04% | ICa current density [3, 19]: −5.00 ± 0.64 pA/pF | ICa/IKrebs [3, 20]: 46.28 ± 3.18%

N[C@@H](CCC(=O)O)C(=O)O [glutamate]
Hill slope (n) of glutamate concentration–response curve ([4]; 10 μM glycine): 1.23 ± 0.12 | Glutamate current density (maximal current/cell capacitance) ([4]; saturating glutamate, -30 mV): -17.55 ± 3.35 pA/pF | Hill slope (n) of glutamate concentration–response curve [5]: 1.27 ± 0.13 | Glutamate current [6]: No glutamate current was detected | Glutamate current [7]: No glutamate current was detected | Hill slope (n) of glutamate concentration–response curve ([8]; 10 μM glycine): 0.89 ± 0.05 | Glutamate current desensitisation decay τ [8, 21]: 420.3 ± 30.1 ms | Glutamate current density (maximal current/cell capacitance) ([8]; saturating glutamate, -30 mV): -15.31 ± 3.70 pA/pF | Reduction of glutamate potency compared to wild-type ([8]; vs GluN1–GluN2B WT): 1.7 fold | Glutamate current density (maximal current/cell capacitance) [9]: -30.31 ± 7.71 pA/pF | Hill slope (n) of glutamate concentration–response curve ([10]; 10 μM glycine): 1.45 ± 0.12 | Glutamate current desensitisation decay τ [10, 21]: 21.17 ± 0.31 s | Glutamate current density (maximal current/cell capacitance) ([10]; saturating glutamate, -30 mV): -20.36 ± 4.54 pA/pF | Glutamate current density (maximal current/cell capacitance) [11]: -15.34 ± 2.56 pA/pF | Glutamate current density (maximal current/cell capacitance) [12]: -19.06 ± 3.65 pA/pF | Hill slope (n) of glutamate concentration–response curve ([13]; 10 μM glycine): 1.44 ± 0.03 | Glutamate current density (maximal current/cell capacitance) ([13]; saturating glutamate, -30 mV): -6.49 ± 3.94 pA/pF | Reduction of glutamate potency compared to wild-type ([13]; vs GluN1–GluN2B WT): 71 fold

[Mg+2] [Mg^2+]
IMg current density [1, 22]: −0.07 ± 0.03 pA/pF | IMg/IKrebs [1, 23]: 0.91 ± 0.37% | IMg current density [2, 22]: −0.09 ± 0.03 pA/pF | IMg/IKrebs [2, 23]: 1.63 ± 0.64% | IMg current density [3, 22]: −10.28 ± 2.53 pA/pF | IMg/IKrebs [3, 23]: 58.4 ± 9.8% and 58.46 ± 9.8 % | k-bi (0mV), Mg2+ unbinding rate constant to inside ([14]; predicted rate constant, 0 mV): 25124 s⁻¹ | k-bo (0mV), Mg2+ unbinding rate constant to outside ([14]; predicted rate constant, 0 mV): 24686 s⁻¹ | Kd ([14]; read-out: Dissociation constant for Mg^2+ binding at −60 mV, trapping block model, −60 mV): 123 µM | IC50 ([14]; read-out: Mg^2+ IC50 (−60 mV), 10 μM glutamate and 10 μM glycine, −60 mV): 142 µM | δMg, fraction of membrane potential sensed by Mg^2+ ([14]; trapping block model fit): 0.88 ± 0.04 | Effect of external Mg^2+ on glutamate current (Mg2+ block) [15]: unaffected by external Mg^2+ | Effect of external Mg^2+ on glutamate current (Mg2+ block) ([15]; listed as Mg2+): insensitive to Mg2+ | Change in current at high Mg^2+ concentrations ([15]; 3–10 mM Mg^2+): small increase in current | Effect of external Mg^2+ on glutamate current (Mg2+ block) [16]: unaffected by external Mg^2+ | Effect of external Mg^2+ on glutamate current (Mg2+ block) ([16]; listed as Mg2+): insensitive to Mg2+

CC(C(O)c1ccc(O)cc1)N1CCC(Cc2ccccc2)CC1 (stereo not drawn) [Ifenprodil, ifenprodil (+)-hemitartrate]
Decrease of EPSC decay time [17, 24]: 30% | Effect on peak EPSC amplitude [17, 24]: reduced the peak EPSC amplitude

N[C@@H](CCCP(=O)(O)O)C(=O)O [APV]
Effect on spontaneous/evoked EPSCs ([17]; 20 μM APV, 0 Mg^2+, 10 μM CNQX, 20 μM bicuculline): blocked

O=C(CSc1nnc(NCc2ccccc2)s1)NCC1CCCCC1 [TCN213]
Prolongation of EPSC decay [17, 25]: 40% | Reduction of peak EPSC amplitude [17, 25]: 10% | IC50 [18]: ~30 µM
